Assay results taken from PubChem BioAssay (NCI).
“And” between values parts separate entries of the source, which are not always exact repeats. Equal entries are not always repeated.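 Interpolation was linear, between the two tested concentrations surrounding the appropriate level; five concentrations were tested over 48 hours in 96-well plates. GI50 = concentration required for 50% inhibition of growth. TGI denotes the concentration required for complete inhibition of growth.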

Experiments:
Assay in all cases: NCI anticancer screen, dose series, 48 h
ACHN renal = test system: ACHN renal
COLO 205 colon = test system: COLO 205 colon
IGROV1 ovarian = test system: IGROV1 ovarian
KM12 colon = test system: KM12 colon
NCI-H226 lung = test system: NCI-H226 lung
NCI-H23 lung = test system: NCI-H23 lung
OVCAR-4 ovarian = test system: OVCAR-4 ovarian
SK-MEL-2 melanoma = test system: SK-MEL-2 melanoma

`COc1cc(Nc2ncccc2C(=O)Nc2nc3ccc(F)cc3s2)cc(OC)c1OC` was tested, and the GI50 (ACHN renal) was 4.82 µM, the TGI (ACHN renal) was > 100 µM and the GI50 (COLO 205 colon) was 3.04 µM. The TGI (COLO 205 colon) was > 100 µM, the GI50 (IGROV1 ovarian) was 1.77 µM and the TGI (IGROV1 ovarian) was 6.89 µM. The GI50 (KM12 colon) was 3.79 µM, the TGI (KM12 colon) was > 100 µM and the GI50 (NCI-H226 lung) was 2.95 µM. For the same compound, the TGI (NCI-H226 lung) was > 100 µM, the GI50 (NCI-H23 lung) was 2.27 µM and the TGI (NCI-H23 lung) was > 100 µM. The GI50 (OVCAR-4 ovarian) was 2.73 µM, the TGI (OVCAR-4 ovarian) was > 100 µM and the GI50 (SK-MEL-2 melanoma) was 2.34 µM. The TGI (SK-MEL-2 melanoma) was 8.04 µM.
`COc1ccc2c(c1)C(=O)/C(=C/c1cccc(OCC(=O)c3ccccc3)c1)O2` gave a GI50 (ACHN renal) of 1.79 µM, a TGI (ACHN renal) of 3.38 µM and a GI50 (COLO 205 colon) of 1.9 µM. For the same compound, the TGI (COLO 205 colon) was 3.57 µM, the GI50 (IGROV1 ovarian) was 3.66 µM and the TGI (IGROV1 ovarian) was 13.3 µM. It also gave a GI50 (KM12 colon) of 4.23 µM, a TGI (KM12 colon) of 16.1 µM and a GI50 (NCI-H226 lung) of 15.9 µM. It also gave a TGI (NCI-H226 lung) of 43.5 µM, a GI50 (NCI-H23 lung) of 4.37 µM and a TGI (NCI-H23 lung) of 15.8 µM. The GI50 (OVCAR-4 ovarian) was 2.72 µM, the TGI (OVCAR-4 ovarian) was 6.37 µM and the GI50 (SK-MEL-2 melanoma) was 16.7 µM. It also gave a TGI (SK-MEL-2 melanoma) of 30.5 µM.
For `Cc1ccc(S(=O)(=O)N=Nc2c(O)[nH]c3cc(O)c(C(=O)O)cc23)cc1`, the TGI (ACHN renal) was > 100 µM, the TGI (COLO 205 colon) was > 100 µM and the TGI (IGROV1 ovarian) was > 100 µM. For the same compound, the TGI (KM12 colon) was > 100 µM, the TGI (NCI-H226 lung) was > 100 µM and the TGI (NCI-H23 lung) was > 100 µM. For the same compound, the TGI (OVCAR-4 ovarian) was > 100 µM and the TGI (SK-MEL-2 melanoma) was > 100 µM.
With `O=C(O)CCCc1ccc2ccc3ccccc3c2c1` the TGI (ACHN renal) was > 100 µM, the TGI (COLO 205 colon) was > 100 µM and the TGI (IGROV1 ovarian) was > 100 µM. The TGI (KM12 colon) was > 100 µM, the TGI (NCI-H226 lung) was > 100 µM and the TGI (NCI-H23 lung) was > 100 µM. The TGI (OVCAR-4 ovarian) was > 100 µM and the TGI (SK-MEL-2 melanoma) was > 100 µM.
In the case of `Cc1cn(-c2cc(NC(=O)c3cccc(C#Cc4cccc5[nH]nc(N)c45)c3)cc(C(F)(F)F)c2)cn1`, the GI50 (ACHN renal) was 3.86 µM, the TGI (ACHN renal) was 16 µM and the GI50 (COLO 205 colon) was 2.45 µM. The TGI (COLO 205 colon) was 15.8 µM, the GI50 (IGROV1 ovarian) was 5.29 µM and the TGI (IGROV1 ovarian) was 83.2 µM. For the same compound, the GI50 (KM12 colon) was 1.29 µM, the TGI (KM12 colon) was > 100 µM and the GI50 (NCI-H226 lung) was 0.771 µM. For the same compound, the TGI (NCI-H226 lung) was 61.2 µM, the GI50 (NCI-H23 lung) was 4.61 µM and the TGI (NCI-H23 lung) was > 100 µM. It also gave a GI50 (OVCAR-4 ovarian) of 2.93 µM, a TGI (OVCAR-4 ovarian) of 21.2 µM and a GI50 (SK-MEL-2 melanoma) of 2.27 µM. It also gave a TGI (SK-MEL-2 melanoma) of 8.14 µM.
For `CCN(CC)CCCC(CCl)Nc1ccnc2cc(Cl)ccc12` (configuration not stated), the GI50 (ACHN renal) was 36 µM and 6.74 µM, the TGI (ACHN renal) was > 100 µM and the GI50 (COLO 205 colon) was 29.5 µM and 15.1 µM. The TGI (COLO 205 colon) was > 100 µM, the GI50 (IGROV1 ovarian) was 70.5 µM and 69.1 µM and the TGI (IGROV1 ovarian) was > 100 µM. For the same compound, the GI50 (KM12 colon) was 16.7 µM and 16.2 µM, the TGI (KM12 colon) was 34 µM and 50.6 µM and the GI50 (NCI-H226 lung) was 34.7 µM and 3.99 µM. For the same compound, the TGI (NCI-H226 lung) was 85.2 µM and > 39.1 µM, the GI50 (NCI-H23 lung) was 17.9 µM and 22.1 µM and the TGI (NCI-H23 lung) was 38.3 µM and > 60.2 µM. The GI50 (OVCAR-4 ovarian) was 35.8 µM and 30.9 µM, the TGI (OVCAR-4 ovarian) was > 100 µM and the GI50 (SK-MEL-2 melanoma) was 25.4 µM and 35 µM. The TGI (SK-MEL-2 melanoma) was 57.5 µM and > 100 µM.
For `CC1(C)N=C(N)N=C(N)N1c1ccc(CCC(=O)Nc2ccc(S(=O)(=O)F)cc2)c(Cl)c1`, the GI50 (ACHN renal) was 5.37 µM, the TGI (ACHN renal) was > 100 µM and the GI50 (COLO 205 colon) was 2.52 µM. For the same compound, the TGI (COLO 205 colon) was > 100 µM, the GI50 (IGROV1 ovarian) was 0.0551 µM and the TGI (IGROV1 ovarian) was > 86.5 µM. The GI50 (KM12 colon) was 0.243 µM, the TGI (KM12 colon) was 28.3 µM and the GI50 (NCI-H226 lung) was 14.4 µM. The TGI (NCI-H226 lung) was > 100 µM, the GI50 (NCI-H23 lung) was 0.888 µM and the TGI (NCI-H23 lung) was > 100 µM. The GI50 (OVCAR-4 ovarian) was 5.51 µM, the TGI (OVCAR-4 ovarian) was > 100 µM and the GI50 (SK-MEL-2 melanoma) was 36.1 µM. The TGI (SK-MEL-2 melanoma) was > 100 µM.
`COCCOC(=O)C1=C(O)c2ccccc2S(=O)(=O)N1C` was tested, and the TGI (ACHN renal) was > 100 µM, the TGI (COLO 205 colon) was > 100 µM and the TGI (IGROV1 ovarian) was > 100 µM. For the same compound, the TGI (KM12 colon) was > 100 µM, the TGI (NCI-H226 lung) was > 100 µM and the TGI (NCI-H23 lung) was > 100 µM. For the same compound, the TGI (OVCAR-4 ovarian) was > 100 µM and the TGI (SK-MEL-2 melanoma) was > 100 µM.
Work on `O=C1C(=O)c2ccccc2C(O)=C1C(C1=C(O)c2ccccc2C(=O)C1=O)c1ccc(Cl)cc1` yielded a TGI (ACHN renal) of 17 µM, a TGI (COLO 205 colon) of 35.6 µM and a TGI (IGROV1 ovarian) of 27.2 µM. The TGI (KM12 colon) was 25 µM, the TGI (NCI-H226 lung) was 52.9 µM and the TGI (NCI-H23 lung) was 27.8 µM. It also gave a TGI (OVCAR-4 ovarian) of 18.6 µM and a TGI (SK-MEL-2 melanoma) of 24.1 µM.
`CC(C)C(O)(C(C)C)C(C)C` was tested, and the TGI (ACHN renal) was > 100 µM, the TGI (COLO 205 colon) was > 100 µM and the TGI (IGROV1 ovarian) was > 100 µM. For the same compound, the TGI (KM12 colon) was > 100 µM, the TGI (NCI-H226 lung) was > 100 µM and the TGI (NCI-H23 lung) was > 100 µM. For the same compound, the TGI (OVCAR-4 ovarian) was > 100 µM and the TGI (SK-MEL-2 melanoma) was > 100 µM.
`CS(=O)(=O)CCNCc1coc(-c2ccc3ncnc(Nc4ccc(OCc5ccccc5)cc4)c3c2)c1` was tested, and the GI50 (ACHN renal) was 3.69 µM, the TGI (ACHN renal) was 17.1 µM and the GI50 (COLO 205 colon) was 4.78 µM. The TGI (COLO 205 colon) was 9.84 µM, the GI50 (IGROV1 ovarian) was 3.7 µM and the TGI (IGROV1 ovarian) was > 20.7 µM. For the same compound, the GI50 (KM12 colon) was 4.68 µM, the TGI (KM12 colon) was 11.9 µM and the GI50 (NCI-H226 lung) was > 12.8 µM. The TGI (NCI-H226 lung) was > 25 µM, the GI50 (NCI-H23 lung) was 9.18 µM and the TGI (NCI-H23 lung) was > 25 µM. For the same compound, the GI50 (OVCAR-4 ovarian) was 5.94 µM, the TGI (OVCAR-4 ovarian) was > 25 µM and the GI50 (SK-MEL-2 melanoma) was 4.55 µM. It also gave a TGI (SK-MEL-2 melanoma) of 8.92 µM.
`COC(=O)c1ccc2[nH]c(O)c(C(=Nc3ccc(N(C)C(=O)CN4CCN(C)CC4)cc3)c3ccc4c(c3)OCO4)c2c1` was tested, and the GI50 (ACHN renal) was 1.58 µM, the TGI (ACHN renal) was 7.11 µM and the GI50 (COLO 205 colon) was 0.369 µM. The TGI (COLO 205 colon) was 1.74 µM, the GI50 (IGROV1 ovarian) was 0.176 µM and the TGI (IGROV1 ovarian) was 1.52 µM. It also gave a GI50 (KM12 colon) of 0.0429 µM, a TGI (KM12 colon) of 1.69 µM and a GI50 (NCI-H226 lung) of 0.616 µM. It also gave a TGI (NCI-H226 lung) of 6.13 µM, a GI50 (NCI-H23 lung) of 0.612 µM and a TGI (NCI-H23 lung) of 2.85 µM. It also gave a GI50 (OVCAR-4 ovarian) of 0.761 µM, a TGI (OVCAR-4 ovarian) of 2.72 µM and a GI50 (SK-MEL-2 melanoma) of 1.24 µM. The TGI (SK-MEL-2 melanoma) was 3.69 µM.
With `O=C(/C=C/c1ccccc1)Nc1ncc(Cc2ccccc2Cl)s1` the GI50 (ACHN renal) was 0.612 µM, the TGI (ACHN renal) was > 100 µM and the GI50 (COLO 205 colon) was 0.366 µM. For the same compound, the TGI (COLO 205 colon) was > 100 µM, the GI50 (IGROV1 ovarian) was 0.477 µM and the TGI (IGROV1 ovarian) was > 100 µM. For the same compound, the GI50 (KM12 colon) was 0.288 µM, the TGI (KM12 colon) was > 100 µM and the GI50 (NCI-H226 lung) was 0.35 µM. The TGI (NCI-H226 lung) was > 100 µM, the GI50 (NCI-H23 lung) was 0.708 µM and the TGI (NCI-H23 lung) was > 100 µM. The GI50 (OVCAR-4 ovarian) was > 100 µM, the TGI (OVCAR-4 ovarian) was > 100 µM and the GI50 (SK-MEL-2 melanoma) was 1.25 µM. For the same compound, the TGI (SK-MEL-2 melanoma) was > 100 µM.
For `C#CC1(O)C(COP(=O)(O)OCC(COP(=O)(O)OCC2OC(n3cc(F)c(=O)[nH]c3=O)CC2O)OCCCCCCCCCCCCCCCCCC)OC(n2ccc(N)nc2=O)C1O` (configuration not stated), the GI50 (ACHN renal) was 0.149 µM, the TGI (ACHN renal) was > 100 µM and the GI50 (COLO 205 colon) was < 0.0202 µM. For the same compound, the TGI (COLO 205 colon) was 1.07 µM, the GI50 (IGROV1 ovarian) was 0.236 µM and the GI50 (KM12 colon) was 0.0933 µM. The TGI (KM12 colon) was > 34.1 µM, the GI50 (NCI-H226 lung) was 0.113 µM and the GI50 (NCI-H23 lung) was 0.28 µM. For the same compound, the TGI (NCI-H23 lung) was 8.72 µM, the GI50 (OVCAR-4 ovarian) was 0.992 µM and the TGI (OVCAR-4 ovarian) was > 100 µM. For the same compound, the GI50 (SK-MEL-2 melanoma) was 0.481 µM and the TGI (SK-MEL-2 melanoma) was 6.24 µM.
